This note sets out measurements from publication PMC9822155, “Synthesis and Antiproliferative Activity against Cancer Cells of Indole-Aryl-Amide Derivatives” (Molecules, 2022).

The subject of experiment [1] is 3T3 (mouse embryonic fibroblast) cells. Kind of experiment: MTT viability assay, 3T3. In kind it is cell-based. The conditions noted are these: 24 h, normal cells. The text has this: (§1) To investigate whether the compounds have an antitumor activity, we performed in vitro viability assays against a panel of cancer cell lines: HT29 (human colorectal adenocarcinoma), HeLa (human cervical carcinoma), IGROV-1 (human ovarian carcinoma), MCF7 (human breast cancer), PC-3 (human prostate adenocarcinoma), and Jurkat J6 (human […]). The I407 (human embryonic intestinal) and 3T3 (mouse embryonic fibroblast) cells were used as controls. The growth inhibitory concentration was determined by incubating the cells with increasing concentrations (0.01–500 μM) of the compounds for 24 h. Data obtained from cell growth assays were elaborated to assess the concentration of cell viability (IC50) and selectivity indices (SI), and the results are shown in Table 2 and Table 3, respectively.
(§2) HT29 human colorectal adenocarcinoma cells, HeLa human cervix adenocarcinoma cells, MCF7 human breast adenocarcinoma cells, PC-3 human prostate adenocarcinoma cells, J6 Jurkat Clone E6-1 acute T cell leukemia, the healthy I407 human intestine cells, and mouse embryonic fibroblast 3T3 fibroblasts as controls cell lines were purchased from American Type Culture Collection (ATCC, Manassas, VA). The human ovarian cancer cell line IGROV1 has been kindly provided by Prof. Colnaghi (Istituto Nazionale Tumori (IRCCS) (Milano, Italy). Cells were cultured in RPMI 1640 medium (Labtek Eurobio, Milan, Italy), supplemented with 10% FCS (Euroclone, Milano, Italy) and 2 mM L-glutamine (Sigma-Aldrich, Milano, Italy), at 37 °C, and a 5% CO2 atmosphere. The compounds were dissolved in DMSO in a 30–40 mM stock solution. In cell treatments, the final DMSO concentration never exceeded 0.1%.
(§3) Cells were seeded at 1.5 × 10^4 cells/well in a 96-well culture plastic plate (Sarsted, Milan, Italy), and after 24 h of growth were exposed to increasing concentrations of each distinct compound (from 0.010 μM to 500 μM) solubilized in RPMI 1640 medium. MTT assay was performed according to the literature. In brief, after 24 h of treatment, the culture medium was replaced with 0.1 mL of 3-(4,5-dimethylthiazolyl-2)-2,5-diphenyltetrazolium bromide (MTT, Sigma-Aldrich, Milano, Italy) dissolved in PBS at the concentration of 0.2 mg/mL, and samples were incubated for 2 h at 37 °C. The absorbance at 570 nm was measured using a multiwell plate reader (Tecan, Männemorf, Switzerland), and data were analyzed by Prism GraphPad software, and expressed as IC50 μM.
(In general: Formazan colour is commonly taken as a measure of viable cells.)

Experiment [2] has as its system I407 (human embryonic intestinal) cells. Kind of experiment: MTT viability assay, I407. The class given is cell-based. The conditions noted are these: 24 h, normal cells.
Text: as §1, §2, §3

The test system of experiment [3] is CDKN1B, CDKN1A and Bax transcription in HT29 cells. The experiment is described as follows: Quantitative real-time PCR of CDKN1B, CDKN1A, Bax. Particulars: HT29, 5 μM, 6 h, normalized to G3PDH, vs. control. In kind it is cell-based, human. Here is the method: To verify whether the epigenetic modifications were related to changes in gene expression, we proceeded with the qtRT-PCR analysis and western blot of related protein products. Transcription levels of CDKN1B, CDKN1A, and Bax were analysed by RT-PCR performed on cDNA of HT29 control and treated with 5 μM of 5 for 6 h.
24 h after seeding, HT29 cells have been treated with 5 µM 5 for 6 h. Total RNA has been isolated by RNeasy Mini kit (Qiagen, Hilden, Germany) according to the manufacturer’s protocol. 1 μg of RNA has been reverse-transcribed with RevertAid First Strand cDNA Synthesis Kit (Fermentas, Ontario, Canada) by using oligo(dT) primers. The cDNA has been analyzed by quantitative Real-Time PCR (qRT-PCR), by employing the LightCycler FastStart DNA Master SYBR Green I Kit and the LightCycler 2.0 instrument (Roche Diagnostics, Manheim, Germany). Gene expression has been quantified by ΔΔCT method, by using G3PDH as the housekeeping gene. The following primers were used: 5′-[…]-3′ (forward) and 5′-[…]-3′ (reverse) for G3PDH detection, 5′-[…]-3′ (forward) and 5′-[…]-3′ (reverse) for p27 detection 5′-[…]-3′(forward) and 5′-[…]-3′ (reverse) for p21 WAF1 detection, 5′-GATGCGTCCACCAAGAAGC-3′ (forward) and 5′-CCGCCACAAAGATGGTCAC -3′ (reverse) for Bax detection.
For orientation: In qPCR the cycle at which signal appears reflects the starting amount.

A word on the IC50: it is the concentration at which inhibition is half-maximal. In experiment [1], `Nc1ccc(CN(Cc2ccc(O)cc2)C(=O)Cc2c[nH]c3ccccc23)cc1` [Compound 5] showed an IC50 of 32 ± 0.02 µM. For the same molecule, the “IC50 [µM] I407” value in experiment [2] is reported as “no activity”. This molecule had an IC50 in experiment [2] (Homo sapiens) of more than 500 µM. In experiment [3], the “Bax gene expression (fold change)” value worked out at 2.58 ± 0.11, the “CDKN1A gene expression (fold change)” value stood at 4.16 ± 0.53 and the CDKN1B gene expression entry is listed as “did not modify the gene expression”.
